Here are results for 39 molecules from patent US20250313535A1, “ALPHA 4 BETA 7 INTEGRIN MODULATORS AND USES THEREOF” (DICE MOLECULES SV, INC., priority 2022, published 2025).

The term IC50 denotes the midpoint of a concentration-inhibition curve.

Like-named read-outs stand apart in the source and are kept apart here. Some results are limits rather than exact numbers.

The target of one test is α4β7 integrin (Homo sapiens (Human), UniProt P13612+P26010). Description: Integrin Adhesion Assay: Protocol 4 (MAdCAM-coated plate, RPMI-8866 cells with stable LOF mutation of the ITGB1 gene). The class given is cell-based. An outline of the steps: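 RPMI-8866 cells with CRISPR/Cas9 knockout of ITGB1 (2×10^6/mL) were added to MAdCAM-coated wells with compound (1% DMSO) in HEPES/NaCl buffer with 1 mM MnCl2, 0.1 mM CaCl2 and 1% BSA, then incubated 1 h at 37 °C. After four washes, adherent cells were quantified by CellTiter-Glo luminescence. Percent inhibition versus DMSO and control compound was fitted to 4-parameter curves.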
α4β7 integrin, sequence (P13612 34-1032): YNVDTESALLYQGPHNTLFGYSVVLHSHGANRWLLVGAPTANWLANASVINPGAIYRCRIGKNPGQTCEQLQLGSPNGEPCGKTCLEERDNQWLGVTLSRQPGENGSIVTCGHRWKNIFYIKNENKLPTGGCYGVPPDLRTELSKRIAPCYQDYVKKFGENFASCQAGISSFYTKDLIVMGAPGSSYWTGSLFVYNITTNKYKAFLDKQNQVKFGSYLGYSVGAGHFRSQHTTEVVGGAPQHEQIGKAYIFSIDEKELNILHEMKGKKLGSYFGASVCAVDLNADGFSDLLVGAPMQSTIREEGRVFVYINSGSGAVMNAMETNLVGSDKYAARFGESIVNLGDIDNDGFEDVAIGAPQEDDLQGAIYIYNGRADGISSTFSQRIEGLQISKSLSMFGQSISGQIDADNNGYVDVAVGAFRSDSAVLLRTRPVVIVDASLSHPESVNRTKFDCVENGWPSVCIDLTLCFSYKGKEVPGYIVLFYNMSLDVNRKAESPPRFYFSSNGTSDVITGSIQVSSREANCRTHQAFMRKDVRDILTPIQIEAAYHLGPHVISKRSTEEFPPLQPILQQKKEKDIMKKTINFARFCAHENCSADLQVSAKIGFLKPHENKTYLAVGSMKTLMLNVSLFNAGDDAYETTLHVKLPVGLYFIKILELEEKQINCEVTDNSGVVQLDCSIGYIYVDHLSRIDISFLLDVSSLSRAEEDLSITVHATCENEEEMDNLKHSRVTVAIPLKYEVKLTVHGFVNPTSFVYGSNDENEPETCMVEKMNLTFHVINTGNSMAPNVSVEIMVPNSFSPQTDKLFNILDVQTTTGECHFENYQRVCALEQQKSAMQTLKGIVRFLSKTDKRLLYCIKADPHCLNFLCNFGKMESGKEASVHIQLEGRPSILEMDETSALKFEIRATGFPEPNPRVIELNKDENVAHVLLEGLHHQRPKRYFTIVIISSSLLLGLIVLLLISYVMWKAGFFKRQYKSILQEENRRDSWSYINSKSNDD
α4β7 integrin, sequence (P26010 20-798): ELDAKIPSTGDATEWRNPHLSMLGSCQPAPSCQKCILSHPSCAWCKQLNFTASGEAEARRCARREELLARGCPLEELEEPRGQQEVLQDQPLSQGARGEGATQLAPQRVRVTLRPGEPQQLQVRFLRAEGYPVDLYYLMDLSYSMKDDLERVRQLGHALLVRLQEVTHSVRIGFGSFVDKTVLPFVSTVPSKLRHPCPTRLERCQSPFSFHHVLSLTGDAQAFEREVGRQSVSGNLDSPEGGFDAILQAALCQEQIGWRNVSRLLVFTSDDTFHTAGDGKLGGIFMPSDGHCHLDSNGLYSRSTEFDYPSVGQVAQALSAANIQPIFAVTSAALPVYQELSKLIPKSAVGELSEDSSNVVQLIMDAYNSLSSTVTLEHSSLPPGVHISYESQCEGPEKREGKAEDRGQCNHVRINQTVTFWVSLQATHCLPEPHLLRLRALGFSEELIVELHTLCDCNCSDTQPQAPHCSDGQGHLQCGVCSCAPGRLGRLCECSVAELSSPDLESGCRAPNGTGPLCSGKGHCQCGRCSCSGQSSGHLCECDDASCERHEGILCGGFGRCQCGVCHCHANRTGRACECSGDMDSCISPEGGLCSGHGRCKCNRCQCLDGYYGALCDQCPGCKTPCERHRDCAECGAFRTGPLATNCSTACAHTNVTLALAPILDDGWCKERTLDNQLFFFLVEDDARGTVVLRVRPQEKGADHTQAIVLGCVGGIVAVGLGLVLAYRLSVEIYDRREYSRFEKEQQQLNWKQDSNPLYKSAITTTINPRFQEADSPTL

Another test concerns the target α4β1 integrin (Homo sapiens (Human), UniProt P05556+P13612). Description: Integrin Adhesion Assay: Protocol 5 (VCAM-coated plate, RPMI-8866 cells with stable LOF mutation of the ITGB7 gene). It is filed as cell-based. An outline of the steps:
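RPMI-8866 B cells with CRISPR/Cas9 ITGB7 knockout (clonal, verified by flow cytometry) adhered to VCAM-coated wells for 1 h at 37° C in HEPES/NaCl buffer with 1 mM MnCl2, 0.1 mM CaCl2, 1% BSA, 1% DMSO. Bound cells quantified by CellTiter-Glo luminescence after washing; % inhibition versus DMSO and control, 4-parameter fit.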

The mark [1] stands for this setting: Protocol 4, RPMI-8866 cells with LOF mutation of ITGB1, MAdCAM, read-out: Mean IC50 α4β7 KO.
[2] abbreviates: Protocol 5, RPMI-8866 cells with LOF mutation of ITGB7, VCAM, read-out: Mean IC50 α4β1 KO.
Setting [3] is: RPMI-8866 cells with stable LOF mutation of the ITGB1 gene, read-out: Mean IC50 α4β7 KO^a.
[4] abbreviates: RPMI-8866 cells with stable LOF mutation of the ITGB7 gene, read-out: Mean IC50 α4β1 KO^b.

α4β1 integrin, sequence (P13612 34-1032): as the sequence (P13612 34-1032) above
α4β1 integrin, sequence (P05556 21-798): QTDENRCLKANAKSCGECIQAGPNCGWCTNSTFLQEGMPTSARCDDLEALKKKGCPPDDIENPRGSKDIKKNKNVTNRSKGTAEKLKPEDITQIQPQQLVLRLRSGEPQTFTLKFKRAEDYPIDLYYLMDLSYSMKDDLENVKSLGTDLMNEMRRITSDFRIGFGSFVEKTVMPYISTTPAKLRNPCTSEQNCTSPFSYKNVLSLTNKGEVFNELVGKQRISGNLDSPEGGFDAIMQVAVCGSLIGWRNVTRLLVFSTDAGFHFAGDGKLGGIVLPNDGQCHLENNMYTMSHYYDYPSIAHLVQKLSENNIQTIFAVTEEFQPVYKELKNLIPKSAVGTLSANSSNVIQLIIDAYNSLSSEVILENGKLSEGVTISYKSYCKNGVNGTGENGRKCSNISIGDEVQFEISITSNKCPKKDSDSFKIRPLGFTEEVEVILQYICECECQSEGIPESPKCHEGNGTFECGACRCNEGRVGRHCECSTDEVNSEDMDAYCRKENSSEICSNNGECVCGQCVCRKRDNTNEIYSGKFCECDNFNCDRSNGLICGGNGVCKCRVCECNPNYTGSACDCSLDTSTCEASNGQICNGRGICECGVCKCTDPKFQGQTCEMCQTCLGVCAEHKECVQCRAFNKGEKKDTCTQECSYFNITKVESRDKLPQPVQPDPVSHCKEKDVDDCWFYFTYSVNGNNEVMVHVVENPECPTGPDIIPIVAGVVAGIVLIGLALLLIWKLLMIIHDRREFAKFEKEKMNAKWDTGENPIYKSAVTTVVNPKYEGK

In the case of `COc1cc(CN2CCC(F)CC2)cc(OC)c1-c1cccc2c(C[C@H](NC(=O)C3(C(F)(F)F)CCN(CC(F)(F)F)CC3)C(=O)O)cccc12` [Compound 851], the concentration for half-maximal inhibition (IC50) at α4β7 integrin (setting [1]) was < 0.01 µM; at α4β1 integrin (setting [2]) it was 0.1 to 1 µM.
`O=C(O)[C@H](Cc1cccc2c(-c3ncc(CN4CCC5(CC4)CC5)c4ccccc34)cccc12)NC(=O)C1(C(F)(F)F)CCN(CC(F)F)CC1` [Compound 912]: the IC50 at α4β7 integrin (setting [1]) was < 0.01 µM; at α4β1 integrin (setting [2]), > 1 µM.
On to `Cn1c(=O)c(-c2cccc3c(C[C@H](NC(=O)C4(C)CC5(CN(CC(F)(F)F)C5)C4)C(=O)O)cccc23)c(C(F)(F)F)c2ccccc21` [Compound 521], for which the IC50 on α4β7 integrin (setting [3]) is 0.1 to 1 µM; on α4β1 integrin (setting [4]), > 1 µM.
With `O=C(O)[C@H](Cc1cccc2c(-c3ncc(CN4CCOC(C(F)(F)F)C4)c4ccccc34)cccc12)NC(=O)C1(C(F)(F)F)CCN(CC(F)F)CC1` (stereo partly drawn) [Compound 858], the 50% inhibitory concentration (IC50) was 0.01 to 0.1 µM at α4β7 integrin (setting [1]) and > 1 µM at α4β1 integrin (setting [2]).
On the same counts, the results for `O=C(O)[C@H](Cc1cccc2c(-c3ccc(CN4CCCCC4)cn3)cccc12)NC(=O)C1(C(F)(F)F)CCN(CC(F)F)CC1` [Compound 896] are 0.01 to 0.1 µM and > 1 µM.
On the same counts, the results for `O=C(O)[C@H](Cc1cccc2c(-c3nccc4ccc(CCCN5CCCCC5)cc34)cccc12)NC(=O)C1(C(F)(F)F)CCN(CC(F)F)CC1` [Compound 748] are < 0.01 µM and > 1 µM.
Turning to `Cn1c(=O)c(-c2cccc3c(C[C@H](NC(=O)C4(C)CCCN(C5COC5)CC4)C(=O)O)cccc23)c(C(F)(F)F)c2ccccc21` (stereo partly drawn) [Compound 1050], the 50% inhibitory concentration (IC50) at α4β7 integrin (setting [1]) was 0.01 to 0.1 µM; at α4β1 integrin (setting [2]), > 1 µM.
In the case of `COc1cccc(CN2CCCCC2)c1-c1cccc2c(C[C@H](NC(=O)C3(C(F)(F)F)CCN(CC(F)(F)F)CC3)C(=O)O)cccc12` [Compound 566], the IC50 at α4β7 integrin (setting [3]) was < 0.01 µM; at α4β1 integrin (setting [4]) it was > 1 µM.
Regarding `O=C(O)[C@H](Cc1cccc2c(-c3ncc(CN4CCCCC4)c4ccccc34)cccc12)NC(=O)C1(C(F)(F)F)CCN(CC(F)F)CC1` [Compound 888], the IC50 is < 0.01 µM on α4β7 integrin (setting [1]) and > 1 µM on α4β1 integrin (setting [2]).
With `O=C(O)[C@H](Cc1cccc2c(-c3nccc4ccc(CCCN5CCCCC5)cc34)cccc12)NC(=O)C1(C(F)(F)F)CCNCC1` [Compound 549], the IC50 at α4β7 integrin (setting [3]) is < 0.01 µM; on α4β1 integrin (setting [4]), > 1 µM.
In the same order, the values of `O=C(O)[C@H](Cc1cccc2c(-c3ncc(CN4CCCCC4)c4ccccc34)cccc12)NC(=O)C1(C(F)(F)F)CCN(C2COC2)CC1` [Compound 577] are < 0.01 µM and 0.1 to 1 µM.
In the case of `COc1ccc(CN2CCN(C3CCC3)CC2)c(OC)c1-c1cccc2c(C[C@H](NC(=O)C3(C(F)(F)F)CCN(CC(F)(F)F)CC3)C(=O)O)cccc12` [Compound 816], the IC50 on α4β7 integrin (setting [1]) was < 0.01 µM; at α4β1 integrin (setting [2]), 0.1 to 1 µM.
Consider `COc1cc(CCN2CCCCC2)ccc1-c1cccc2c(C[C@H](NC(=O)c3c(C)cccc3F)C(=O)O)cccc12` [Compound 740], for which the IC50 was < 0.01 µM at α4β7 integrin (setting [1]) and > 1 µM on α4β1 integrin (setting [2]).
In the same order, the values of `CC[C@@H]1CCCN1Cc1cnc(-c2cccc3c(C[C@H](NC(=O)C4(C(F)(F)F)CCN(CC(F)F)CC4)C(=O)O)cccc23)c2ccccc12` [Compound 936] are < 0.01 µM and 0.1 to 1 µM.
On the same counts, the results for `COc1cccc(CCN2CCCC(F)C2)c1-c1cccc2c(C[C@H](NC(=O)C3(C(F)(F)F)CCN(CC(F)(F)F)CC3)C(=O)O)cccc12` (stereo partly drawn) [Compound 959] are < 0.01 µM and 0.1 to 1 µM.
In the same order, the values of `CC1(C)CCCN(Cc2cnc(-c3cccc4c(C[C@H](NC(=O)C5(C(F)(F)F)CCN(CC(F)(F)F)CC5)C(=O)O)cccc34)c3ccccc23)CC1` [Compound 876] are < 0.01 µM and > 1 µM.
As to `O=C(O)[C@H](Cc1cccc2c(-c3ncc(CCN4CCCCC4)c4ccccc34)cccc12)NC(=O)C1(C(F)(F)F)CCN(CC(F)F)CC1` [Compound 955], the concentration for half-maximal inhibition (IC50) at α4β7 integrin (setting [1]) is < 0.01 µM; on α4β1 integrin (setting [2]), 0.1 to 1 µM.
For the molecule `COc1ccc(CN2C(C)CCC2C)c(OC)c1-c1cccc2c(C[C@H](NC(=O)c3c(C)cccc3F)C(=O)O)cccc12` (stereo partly drawn) [Compound 635], the 50% inhibitory concentration (IC50) is 0.01 to 0.1 µM on α4β7 integrin (setting [3]) and > 1 µM at α4β1 integrin (setting [4]).
For `COc1ccc(CN2CCC(F)(F)CC2)c(OC)c1-c1cccc2c(C[C@H](NC(=O)c3c(C)cc(C45CCOCC4C5)cc3F)C(=O)O)cccc12` (stereo partly drawn) [Compound 616], the results for the concentration for half-maximal inhibition (IC50) on α4β7 integrin (setting [3]) and on α4β1 integrin (setting [4]) were 0.01 to 0.1 µM and > 1 µM, respectively.
For `COc1ccc(CCN2CCCCC2)c(C(F)(F)F)c1-c1cccc2c(C[C@H](NC(=O)c3c(C)cccc3F)C(=O)O)cccc12` [Compound 1004], the IC50 on α4β7 integrin (setting [1]) was < 0.01 µM; on α4β1 integrin (setting [2]), 0.1 to 1 µM.
For the molecule `CC[C@H]1CCCN1Cc1cnc(-c2cccc3c(C[C@H](NC(=O)C4(C(F)(F)F)CCN(CC(F)(F)F)CC4)C(=O)O)cccc23)c2ccccc12` [Compound 933], the IC50 was < 0.01 µM on α4β7 integrin (setting [1]) and 0.1 to 1 µM on α4β1 integrin (setting [2]).
In the same order, the values of `COc1cc2c(c(OC)c1-c1cccc3c(C[C@H](NC(=O)C4(C(F)(F)F)CCN(CC(F)(F)F)CC4)C(=O)O)cccc13)CN(C1CCCCC1)CC2` [Compound 993] are < 0.01 µM and 0.1 to 1 µM.
In the case of `CN(C)Cc1ccc2c(C(F)(F)F)c(-c3cccc4c(C[C@H](NC(=O)C5(C(F)(F)F)CCN(CC(F)(F)F)CC5)C(=O)O)cccc34)c(=O)n(C)c2c1` [Compound 476], the results for the IC50 at α4β7 integrin (setting [3]) and at α4β1 integrin (setting [4]) were < 0.01 µM and 0.1 to 1 µM, respectively.
In the same order, the values of `O=C(O)[C@H](Cc1cccc2c(-c3ncc(CN4CCCCC4)c4ccccc34)cccc12)NC(=O)C1(C(F)(F)F)CCN([C@H]2COCC2(F)F)CC1` [Compound 680] are < 0.01 µM and 0.1 to 1 µM.
With `COc1ccc(CN2CCC3(CCCCC3)CC2)c(OC)c1-c1cccc2c(C[C@H](NC(=O)c3c(C)cccc3F)C(=O)O)cccc12` [Compound 654], the values for the IC50 at α4β7 integrin (setting [3]) and on α4β1 integrin (setting [4]) were < 0.01 µM and > 1 µM, respectively.
Turning to `COc1ccc(CN2CCC(C(C)(C)C)CC2)c(OC)c1-c1cccc2c(C[C@H](NC(=O)C3(C(F)(F)F)CCN(CC(F)(F)F)CC3)C(=O)O)cccc12` [Compound 818], the figures for the 50% inhibitory concentration (IC50) at α4β7 integrin (setting [1]) and at α4β1 integrin (setting [2]) were < 0.01 µM and > 1 µM, respectively.
In the same order, the values of `COc1ccc(CN2CC[C@H](F)C2)cc1-c1cccc2c(C[C@H](NC(=O)C3(C(F)(F)F)CCN(CC(F)F)CC3)C(=O)O)cccc12` [Compound 943] are < 0.01 µM and 0.01 to 0.1 µM.
In the same order, the values of `O=C(O)[C@H](Cc1cccc2c(-c3ncc(CCCN4CCCCC4)c4ccccc34)cccc12)NC(=O)C1(C(F)(F)F)CCN(CC(F)(F)F)CC1` [Compound 730] are < 0.01 µM and > 1 µM.
Regarding `Cn1c(=O)c(-c2cccc3c(C[C@H](NC(=O)C4(C(F)(F)F)CCN(CC(F)F)CC4)C(=O)O)cccc23)c(C(F)(F)F)c2cc(CN3CCC(F)CC3)ccc21` [Compound 834], the IC50 on α4β7 integrin (setting [1]) was < 0.01 µM; at α4β1 integrin (setting [2]), 0.01 to 0.1 µM.
With `O=C(O)[C@H](Cc1cccc2c(-c3ncc(CN4CCOCC4)c4ccccc34)cccc12)NC(=O)C1(C(F)(F)F)CCN(CC(F)(F)F)CC1` [Compound 862], the IC50 was < 0.01 µM at α4β7 integrin (setting [1]) and > 1 µM on α4β1 integrin (setting [2]).
In the same order, the values of `COc1ccc2c(c1-c1cccc3c(C[C@H](NC(=O)c4c(C)cccc4F)C(=O)O)cccc13)CCN(CC(F)F)C2` [Compound 1003] are 0.01 to 0.1 µM and > 1 µM.
Turning to `COc1ccc(CN2CCC(F)(F)CC2)c(OC)c1-c1cccc2c(C[C@H](NC(=O)c3c(F)cccc3Cl)C(=O)O)cccc12` [Compound 605], the figures for the concentration for half-maximal inhibition (IC50) at α4β7 integrin (setting [3]) and at α4β1 integrin (setting [4]) were 0.01 to 0.1 µM and > 1 µM, respectively.
On the same counts, the results for `CCc1cccc(F)c1C(=O)N[C@@H](Cc1cccc2c(-c3c(CN4CCCCC4)cccc3OC)cccc12)C(=O)O` [Compound 546] are < 0.01 µM and 0.1 to 1 µM.
In the same order, the values of `COc1ccc(CN2CCC(F)(F)CC2)c(OC)c1-c1cccc2c(C[C@H](NC(=O)c3c(C)cncc3F)C(=O)O)cccc12` [Compound 604] are < 0.01 µM and > 1 µM.
In the same order, the values of `Cn1c(=O)c(-c2cccc3c(C[C@H](NC(=O)C4(C(F)(F)F)CCN(C5CCOC5(C)C)CC4)C(=O)O)cccc23)c(C(F)(F)F)c2ccccc21` (stereo partly drawn) [Compound 508] are 0.01 to 0.1 µM and 0.1 to 1 µM.
In the case of `COc1ccc(CN2CCC(C)(C)CC2)c(OC)c1-c1cccc2c(C[C@H](NC(=O)C3(C(F)(F)F)CCN(CC(F)(F)F)CC3)C(=O)O)cccc12` [Compound 789], the concentration for half-maximal inhibition (IC50) on α4β7 integrin (setting [1]) is < 0.01 µM; at α4β1 integrin (setting [2]), 0.1 to 1 µM.
`COc1ccc(CN2CCC(F)(F)CC2)c(OC)c1-c1cccc2c(C[C@H](NC(=O)c3c(F)cncc3Cl)C(=O)O)cccc12` [Compound 614]: the IC50 at α4β7 integrin (setting [3]) was in the range of 0.01 to 0.1 µM; on α4β1 integrin (setting [4]), 0.1 to 1 µM.
Consider `COc1cc(C(F)(F)F)c(CN2CCCCC2)cc1-c1cccc2c(C[C@H](NC(=O)C3(C(F)(F)F)CCN(CC(F)(F)F)CC3)C(=O)O)cccc12` [Compound 832], for which the concentration for half-maximal inhibition (IC50) on α4β7 integrin (setting [1]) is 0.01 to 0.1 µM; at α4β1 integrin (setting [2]), > 1 µM.
Consider `COc1cccc(OCCN2CCCCC2)c1-c1cccc2c(C[C@H](NC(=O)C3(C(F)(F)F)CCN(CC(F)(F)F)CC3)C(=O)O)cccc12` [Compound 729], for which the results for the concentration for half-maximal inhibition (IC50) at α4β7 integrin (setting [1]) and at α4β1 integrin (setting [2]) were < 0.01 µM and 0.1 to 1 µM, respectively.
